{"source": "paper PMC6100724", "about": "“Proteome‐wide analysis of phospho‐regulated PDZ domain interactions” (Molecular Systems Biology, 2018)", "experiment_in_all_cases": "Phosphomimetic ProP-PD selection with NGS", "key": {"DLG1 PDZ2": {"biological_target": "T1, DLG1 PDZ2 (Homo sapiens, UniProt Q12959)", "T1 construct": "human DLG1 PDZ2 aa 311–407 in a modified pRSET vector 40; made in house; host or cells: E. coli BL21 Gold (DE3)", "T1 sequence (Q12959 311-407)": "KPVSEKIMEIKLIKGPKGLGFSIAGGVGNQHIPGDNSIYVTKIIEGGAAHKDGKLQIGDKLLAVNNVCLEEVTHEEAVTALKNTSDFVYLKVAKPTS", "assay_type": "binding", "details": "mean of selections 1-3, bait DLG1 PDZ2", "protocol": "(§1) Phage selections were carried out for four rounds following a protocol by Huang and Sidhu (Huang & Sidhu, 2011) with minor modifications. Non‐specific binding phage was removed by pre‐selections against immobilized GST throughout the selection. The selections against the (pre‐)phosphorylated wild‐type library were performed in 50 mM HEPES (pH 7.4) and 150 mM NaCl (HBS) following the same procedure after pre‐phosphorylation of the library.\n(§2) • Immobilize proteins (15 μg in 100 μl PBS) in a 96‐well MaxiSorp microtiter plate (NUNC) overnight at 4°C. • Start a 2YT culture of E. coli Omnimax supplemented with 100 μg/ml tetracycline to retain the F pilus epitope. • Block the wells with 200 μl 0.5% BSA in PBS for 2 h at 4°C. • Precipitate naïve phage library (10^11 cfu per selection) or amplified phage pool from the previous round of selection by adding one‐fifth the volume of PEG/NaCl. • Incubate on ice for 10 min, and pellet precipitated phage by centrifugation at 5,300 g for 15 min. Resuspend the phage pellet in 100 μl PBS per selection. • Add 100 μl of phage solution to the GST‐coated pre‐selection wells and incubate for 1 h. • Transfer the phage solution to the immobilized target proteins and allow it to bind for 2 h at 8°C. • Wash the plate four times with 200 μl cold wash buffer (PBS, 0.05% Tween‐20). • Elute bound phage by incubation with 100 μl log phase (0.6–0.8 OD600) E. coli Omnimax for 30 min at 37°C with shaking (200 RPM). • Add 10^12 cfu/ml M13K07 helper phage for hyperinfection of the bacteria and incubate as above for 45 min. • Transfer the bacterial culture to 10 ml 2YT supplemented with 50 μg/ml carbenicillin, 25 μg/ml kanamycin, and 300 μM IPTG and incubate overnight at 37°C while shaking. • Perform phage pool ELISA to monitor the progress of the selection as described previously (Huang & Sidhu, 2011).\n(§3) The naïve library and the enriched phage pools of the third day of selection were amplified and barcoded by PCR and analyzed by NGS as described elsewhere (McLaughlin & Sidhu, 2013; Ivarsson et al, 2014). The reads were demultiplexed using the barcode sequences and filtered by discarding sequences with a Phred quality score under 30. Sequences were mapped to the original library using Bowtie (Langmead et al, 2009) with two mismatches between reads and library sequence. Nucleotide mutations leading to amino acid substitutions were subsequently removed. Cutoff values of NGS counts were assigned for each pool. PWMs were generated based on the remaining peptides (aligned on the C‐termini) using WebLogo (Crooks et al, 2004).\n(§4) However, there was no significant correlation of the actual read counts (selection “strength”) and the initial representation in the library, reflecting the strong selection during phage display (wt+mimetic: P‐value: 0.49, ρ = −0.08, mimetic only: P‐value: 0.069, ρ = −0.2, wt only: P‐value: 0.12, ρ = 0.17). Consequently, the amount of reads for each binder after phage display is not a function of the amount of input reads in the naïve library and no modeling based on the input library frequencies to score the interactions is necessary. To allow for comparison between replicate selections, we used the fraction of NGS reads within a certain set, instead of the absolute number of NGS reads, as the absolute numbers differ between different NGS batches."}, "Scribble PDZ3": {"system": "Scribble PDZ3", "assay_type": "binding, human", "details": "bait Scribble PDZ3", "protocol": "as §1, §2, §3, §4"}, "Scribble PDZ1": {"biological_target": "T2, Scribble PDZ1 (Homo sapiens, UniProt Q14160)", "T2 construct": "human Scribble PDZ1 aa 719–829 in; made in house; host or cells: E. coli BL21 Gold (DE3)", "T2 sequence (Q14160 719-829)": "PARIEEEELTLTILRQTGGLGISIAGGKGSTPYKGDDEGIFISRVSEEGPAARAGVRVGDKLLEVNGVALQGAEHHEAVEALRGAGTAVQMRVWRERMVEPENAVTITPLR", "assay_type": "binding", "details": "bait Scribble PDZ1; mean of selections 1-3", "protocol": "as §1, §2, §3, §4"}, "[1]": {"details": "mean of selections 1-3, phosphomimetic peptide"}}}
{"sequence": "ISYRRESAI", "values": [{"measurement": "Mean fraction #NGS counts mimetic peptide / total count selection", "setting": "DLG1 PDZ2", "value": 0}, {"measurement": "Mean fraction #NGS counts wt peptide / total counts selection", "setting": "DLG1 PDZ2", "value": "1.436e-5"}, {"measurement": "Mean fraction #NGS counts wt peptide / total counts selection", "setting": "Scribble PDZ3; mean over selections 1-3", "value": 0.0002548}]}
{"sequence": "RATEWYSPY", "values": [{"measurement": "Mean fraction #NGS counts mimetic peptide / total count selection", "setting": "DLG1 PDZ2", "value": 0}]}
{"sequence": "MRLQEETEV", "values": [{"measurement": "Mean fraction #NGS counts mimetic peptide / total count selection", "setting": "DLG1 PDZ2", "value": 0.0001421}]}
{"sequence": "LRLQSETSV", "values": [{"measurement": "Mean fraction #NGS counts wt peptide / total counts selection", "setting": "DLG1 PDZ2", "value": "3.877e-6"}]}
{"sequence": "VRSKLPSNL", "values": [{"measurement": "Mean fraction #NGS counts wt peptide / total counts selection", "setting": "Scribble PDZ1", "value": "4.38e-5"}]}
{"sequence": "PTHVLQTQI", "values": [{"measurement": "Mean fraction #NGS counts wt peptide / total counts selection", "setting": "Scribble PDZ1", "value": 0}]}
{"sequence": "IPLTRETTF", "values": [{"measurement": "Mean fraction #NGS counts mimetic peptide / total count selection", "setting": "Scribble PDZ3; mean over selections 1-3", "value": 0.0004175}]}
{"sequence": "SRKRTSSFL", "values": [{"measurement": "Mean fraction #NGS counts wt peptide / total counts selection", "setting": "Scribble PDZ3; mean over selections 1-3", "value": 0}]}
{"sequence": "KKRMVEEPL", "values": [{"measurement": "Mean fraction #NGS counts mimetic peptide / total count selection", "setting": "Scribble PDZ3; mean over selections 1-3", "value": 0}]}
{"sequence": "MKRLTETRL", "values": [{"measurement": "Mean fraction #NGS counts mimetic peptide / total count selection", "setting": "Scribble PDZ1", "value": 0.01768}, {"measurement": "Mean fraction #NGS counts mimetic peptide / total count selection", "setting": "Scribble PDZ3; mean over selections 1-3", "value": 0.001041}]}
{"sequence": "ERLEYEETL", "values": [{"measurement": "Mean fraction #NGS counts mimetic peptide / total count selection", "setting": "Scribble PDZ3; mean over selections 1-3", "value": 0}]}
{"sequence": "LSIEKETKL", "values": [{"measurement": "Mean fraction #NGS counts wt peptide / total counts selection", "setting": "Scribble PDZ3; mean over selections 1-3", "value": 0.01518}]}
{"sequence": "KYVDAETEL", "values": [{"measurement": "Mean fraction #NGS counts mimetic peptide / total count selection", "setting": "Scribble PDZ3; [1]", "value": 0.0004194}]}
{"sequence": "VTEERETNI", "values": [{"measurement": "Mean fraction #NGS counts mimetic peptide / total count selection", "setting": "Scribble PDZ3; mean over selections 1-3", "value": "4.038e-6"}]}
{"sequence": "SQSRMETNM", "values": [{"measurement": "Mean fraction #NGS counts mimetic peptide / total count selection", "setting": "Scribble PDZ3; mean over selections 1-3", "value": 0.0002587}]}
{"sequence": "RPLRRESEI", "values": [{"measurement": "Mean fraction #NGS counts mimetic peptide / total count selection", "setting": "DLG1 PDZ2", "value": 0}, {"measurement": "Mean fraction #NGS counts wt peptide / total counts selection", "setting": "DLG1 PDZ2", "value": "3.748e-5"}, {"measurement": "Mean fraction #NGS counts wt peptide / total counts selection", "setting": "Scribble PDZ3; mean over selections 1-3", "value": "8.219e-5"}]}
{"sequence": "SRKRTESFL", "values": [{"measurement": "Mean fraction #NGS counts mimetic peptide / total count selection", "setting": "Scribble PDZ3; mean over selections 1-3", "value": 0.0004518}]}
{"sequence": "LAPNIIEQL", "values": [{"measurement": "Mean fraction #NGS counts mimetic peptide / total count selection", "setting": "Scribble PDZ1", "value": "2.8202e-5"}]}
{"sequence": "IEWLAFSVL", "values": [{"measurement": "Mean fraction #NGS counts mimetic peptide / total count selection", "setting": "Scribble PDZ1", "value": "4.38e-5"}]}
{"sequence": "IPLTRTTTF", "values": [{"measurement": "Mean fraction #NGS counts wt peptide / total counts selection", "setting": "Scribble PDZ3; mean over selections 1-3", "value": 0}]}
{"sequence": "KSEPFLTWL", "values": [{"measurement": "Mean fraction #NGS counts wt peptide / total counts selection", "setting": "Scribble PDZ3; mean over selections 1-3", "value": 0.002017}]}
{"sequence": "GLMKRRSEV", "values": [{"measurement": "Mean fraction #NGS counts mimetic peptide / total count selection", "setting": "DLG1 PDZ2", "value": "6.06e-5"}]}
{"sequence": "ISFTQTSQF", "values": [{"measurement": "Mean fraction #NGS counts wt peptide / total counts selection", "setting": "DLG1 PDZ2", "value": "6.749e-6"}]}
{"sequence": "SIDLWETAL", "values": [{"measurement": "Mean fraction #NGS counts wt peptide / total counts selection", "setting": "Scribble PDZ3; mean over selections 1-3", "value": 0.004105}]}
{"sequence": "RSEMKPGFV", "values": [{"measurement": "Mean fraction #NGS counts mimetic peptide / total count selection", "setting": "DLG1 PDZ2; phosphomimetic peptide", "value": 0}]}
{"sequence": "DSSILSTVV", "values": [{"measurement": "Mean fraction #NGS counts wt peptide / total counts selection", "setting": "DLG1 PDZ2", "value": 0.0001102}]}
{"sequence": "RPLRREEEI", "values": [{"measurement": "Mean fraction #NGS counts mimetic peptide / total count selection", "setting": "Scribble PDZ3; mean over selections 1-3", "value": 0}]}
{"sequence": "VREKLPSNL", "values": [{"measurement": "Mean fraction #NGS counts mimetic peptide / total count selection", "setting": "Scribble PDZ1", "value": 0}]}
{"sequence": "NSTNMESEL", "values": [{"measurement": "Mean fraction #NGS counts mimetic peptide / total count selection", "setting": "Scribble PDZ3; [1]", "value": 0.001938}]}
{"sequence": "GLMKRRSSV", "values": [{"measurement": "Mean fraction #NGS counts wt peptide / total counts selection", "setting": "DLG1 PDZ2", "value": 0}]}
{"sequence": "VKRLLESVF", "values": [{"measurement": "Mean fraction #NGS counts mimetic peptide / total count selection", "setting": "Scribble PDZ1", "value": 0.005379}]}
{"sequence": "PIHELETEL", "values": [{"measurement": "Mean fraction #NGS counts mimetic peptide / total count selection", "setting": "Scribble PDZ3; [1]", "value": 0.0005099}]}
{"sequence": "GEGGRQSVV", "values": [{"measurement": "Mean fraction #NGS counts mimetic peptide / total count selection", "setting": "DLG1 PDZ2; phosphomimetic peptide", "value": "9.343e-5"}]}
{"sequence": "KEEPFLTWL", "values": [{"measurement": "Mean fraction #NGS counts mimetic peptide / total count selection", "setting": "Scribble PDZ3; mean over selections 1-3", "value": 0.001054}]}
{"sequence": "LKSGRDSTV", "values": [{"measurement": "Mean fraction #NGS counts mimetic peptide / total count selection", "setting": "DLG1 PDZ2", "value": 0}, {"measurement": "Mean fraction #NGS counts wt peptide / total counts selection", "setting": "DLG1 PDZ2", "value": 0.0003449}]}
{"sequence": "IEFTQTEQF", "values": [{"measurement": "Mean fraction #NGS counts mimetic peptide / total count selection", "setting": "DLG1 PDZ2", "value": 0.001455}]}
{"sequence": "LSIEKEEKL", "values": [{"measurement": "Mean fraction #NGS counts mimetic peptide / total count selection", "setting": "Scribble PDZ3; mean over selections 1-3", "value": "3.894e-6"}]}
{"sequence": "HEIKQSTAV", "values": [{"measurement": "Mean fraction #NGS counts mimetic peptide / total count selection", "setting": "DLG1 PDZ2; phosphomimetic peptide", "value": 0}]}
